Data from patent US20110053773A1, “METHODS OF IMPROVING NUTRITIONAL VALUE OF PLANTS” (UNIVERSITY OF TENNESSEE RESEARCH FOUNDATION, priority 2009, published 2011).

Key:
[1] = system: sweet corn cultivars 'Merit', 'Temptation', 'Incredible'; test: Kernel carotenoids of sweet corn after mesotrione and atrazine (Example 3); assay type: in vivo; design: Kernel carotenoids: Lutein / Kernel carotenoids: Zeaxanthin: unit not given here; settings: mesotrione 105, atrazine 560 g ai/ha
Protocol: (§1) Studies were conducted in a field in Knoxville, Tenn. to ascertain the growth, stress tolerance and nutritional quality differences following postemergence applications of herbicides mesotrione and atrazine, alone and in mixtures together, on the young sweet corn cultivars: ‘Merit’ (yellow-kernel sensitive genotype), ‘Temptation’ (bicolor tolerant genotype), and ‘Incredible’ (yellow-kernel moderately sensitive genotype).
(§2) Herbicide treatments were applied as follows: 1) untreated control; 2) mesotrione (meso) at 105 g ai/ha EPOST; 3) mesotrione at 105+atrazine at 560 g ai/ha EPOST; 4) atrazine at 560 g ai/ha EPOST; 5) mesotrione at 105 g ai/ha LPOST; 6) mesotrione at 105+atrazine at 560 g ai/ha LPOST; and 7) atrazine at 560 g ai/ha LPOST. Visual ratings of plant growth were taken during season, and kernels for carotenoids were measured at harvest.

[2] = system: sweet corn cultivars 'Merit', 'Temptation', 'Incredible'; test: Visual leaf tissue bleaching of sweet corn (Example 3, Table 9); assay type: in vivo; settings: mesotrione 105, atrazine 560 g ai/ha
Protocol: as §1, §2

[3] = 'Incredible' moderately sensitive genotype, EPOST
[4] = 'Incredible' moderately sensitive genotype, LPOST
[5] = 'Merit' sensitive genotype, EPOST
[6] = 'Merit' sensitive genotype, LPOST

With `CS(=O)(=O)c1ccc(C(=O)C2C(=O)CCCC2=O)c([N+](=O)[O-])c1` [Mesotrione*CALLISTO, mesotrione] the “Lutein % change from untreated control” value [1, 3] was −6.4%, the “Zeaxanthin % change from untreated control” value (“Zeaxanthin % change” for short) [1, 3] was −7.4% and the “Kernel carotenoids: Lutein” value ([1]; 'Incredible' moderately sensitive genotype, EPOST, untreated 0.328) was 0.307. For the same compound, the “Kernel carotenoids: Zeaxanthin” value ([1]; 'Incredible' moderately sensitive genotype, EPOST, untreated 0.448) was 0.415, the “Lutein % change from untreated control” value [1, 4] was “+4.6%” and the “Zeaxanthin % change” value [1, 4] was “+1.3%”. The “Kernel carotenoids: Lutein” value ([1]; 'Incredible' moderately sensitive genotype, LPOST, untreated 0.328) was 0.343, the “Kernel carotenoids: Zeaxanthin” value ([1]; 'Incredible' moderately sensitive genotype, LPOST, untreated 0.448) was 0.454 and the “Lutein % change from untreated control” value [1, 5] was “+7.8%”. For the same compound, the “Zeaxanthin % change” value [1, 5] was “+12.0%”, the “Kernel carotenoids: Zeaxanthin” value ([1]; 'Merit' sensitive genotype, EPOST, untreated 0.509) was 0.570 and the “Kernel carotenoids: Lutein” value [1, 6] was 0.577. The “Lutein % change from untreated control” value [1, 6] was “+8.7%”, the “Zeaxanthin % change” value [1, 6] was −3.7% and the “Kernel carotenoids: Zeaxanthin” value ([1]; 'Merit' sensitive genotype, LPOST, untreated 0.509) was 0.409. For the same compound, the “Leaf Tissue Visual Bleaching (%)” value ([2]; ‘Incredible’, 7 DAT, EPOST) was 16%, the “Leaf Tissue Visual Bleaching (%)” value ([2]; ‘Incredible’, 7 DAT, LPOST) was 11% and the “Leaf Tissue Visual Bleaching (%)” value ([2]; ‘Incredible’, 14 DAT, EPOST) was 9%. The “Leaf Tissue Visual Bleaching (%)” value ([2]; ‘Incredible’, 14 DAT, LPOST) was 9%, the “Leaf Tissue Visual Bleaching (%)” value ([2]; ‘Incredible’, 21 DAT, EPOST) was 8% and the “Leaf Tissue Visual Bleaching (%)” value ([2]; ‘Incredible’, 21 DAT, LPOST) was 1%. The “Leaf Tissue Visual Bleaching (%)” value ([2]; ‘Merit’, 7 DAT, EPOST) was 61%, the “Leaf Tissue Visual Bleaching (%)” value ([2]; ‘Merit’, 7 DAT, LPOST) was 34% and the “Leaf Tissue Visual Bleaching (%)” value ([2]; ‘Merit’, 14 DAT, EPOST) was 53%. For the same compound, the “Leaf Tissue Visual Bleaching (%)” value ([2]; ‘Merit’, 14 DAT, LPOST) was 29%, the “Leaf Tissue Visual Bleaching (%)” value ([2]; ‘Merit’, 21 DAT, EPOST) was 44% and the “Leaf Tissue Visual Bleaching (%)” value ([2]; ‘Merit’, 21 DAT, LPOST) was 9%.
